Experimental data taken from patent US20020198379A1, “Active compound from a sponge” (Pharma Mar, s.a., priority 1993, published 2002).
≈ marks a conversion by molar mass, not a printed value.

Experiments:
[1] = system: human lung carcinoma A-549; assay: in vitro antitumor activity, A-549 tumour cells; type: cell-based; conditions: A549
Experimental: (§1) The antitumor activities of this compound have been determined “in vitro” in cell cultures of human lung carcinoma A-549 and human colon carcinoma HT-29. The procedure was carried out using the methodology described by Raymond J. Bergeron et al. Biochem. Bioph. Res. Comm. 1984, 121(3), 848-854 and by Alan C. Schroeder et al. J. Med. Chem. 1981, 24 1078-1083.
(§2) The compound is active against the following tumour cells at the inhibiting concentrations noted: […]

P-388 = assay: in vitro antitumor activity, P-388 tumour cells; type: cell-based; conditions: Mus musculus, P388
B. subtilis = assay: antibiotic disk assay, B. subtilis; type: cell-based; conditions: 10 μg/disk
KB = assay: in vitro antitumor activity, KB tumour cells; type: cell-based; conditions: Homo sapiens
[2] = system: primary culture of murine lymphocytes; assay: cytotoxicity assay against primary culture of murine lymphocytes; type: cell-based; conditions: Mus musculus, Lymphocyte
pH stability = type: physicochemical
Experimental: Palau'amine was isolated from the sponge as follows. Extraction of the lyophilized sponge (600 g) with MeOH (6 L) and dissolution of the water soluble residue after evaporation yielded 900 ml of an aqueous extract. [The dust from the lyophilized sponge caused a powerful allergic reaction, which entailed severe shortness of breath for about four hours; the effect largely disappeared within 24 hours]. […] Repeated LH-20 chromatography (MeOH) of the 0.5 fraction, after desalting by dissolving in EtOH, furnished essentially pure palau'amine, presumably as the hydrochloride, (14 mg, 0.01% dry weight) as an optically active, off-white amorphous powder that decomposed prior to melting. Further purification of palau'amine could be effected by HPLC [YMC aqueous C18, H2O/MeCN (90:10), 0.1% TFA].

[3] = system: human colon carcinoma HT-29; assay: in vitro antitumor activity, HT-29 tumour cells; type: cell-based
Experimental: as §1, §2

[4] = system: mixed lymphocyte reaction (MLR); assay: mixed lymphocyte reaction (MLR); type: cell-based; conditions: read-out: IC
Penicillium notatum = assay: antifungal disk assay, Penicillium notatum; type: cell-based; conditions: Penicillium chrysogenum, 50 μg/disk
LD50 i.p. in mice = conditions: mouse, in vivo, ip
S. aureus = assay: antibiotic disk assay, S. aureus; type: cell-based; conditions: 10 μg/disk

NC[C@H]1[C@H]2CN3C(=O)c4cccn4[C@H]4N=C(N)NC43[C@H]2[C@@]2(N=C(N)N[C@@H]2O)[C@@H]1Cl (stereo partly drawn) [palau'amine]
IC50 [1]: 0.2 µg/mL (≈ 0.476 µM) | IC50 (P-388): 0.1 µg/mL (≈ 0.238 µM) | antibiotic activity (B. subtilis): antibiotic activity | IC50 (KB): 10 µg/mL (≈ 23.8 µM) | IC50 [2]: 1.5 µg/mL (≈ 3.57 µM) | stability >pH 6.5 (pH stability; >pH 6.5): decomposes rapidly | stability in acid (pH stability; in acid): quite stable | IC50 [3]: 2 µg/mL (≈ 4.76 µM) | IC50 [4]: < 0.018 µg/mL | zone of inhibition at 50 µg/disc (Penicillium notatum): 24 mm | LD50 (LD50 i.p. in mice): 13 mg/kg | antibiotic activity (S. aureus): antibiotic activity
